The values below come from patent US11919854B2, “P2RX7 modulators in therapy” (Centre national de la recherche scientifique, priority 2018, dated 2024).

The nature of data set [1]: Stability in mouse liver microsomes. Type of data set: in vitro ADME. Conditions: 1 μM; 0, 5, 10, 20, 30 and 40 min; mass spectrometry. Here is the method: A. HEI-2328 and -3090 are stable molecules. Mouse liver microsomes from BD Gentest (ref 5345001) were incubated with HEI-2314, -2328, -2333 and -3090 at 1 μM for 0, 5, 10, 20, 30 and 40 min. The stability of the compounds was assayed by mass spectrometry.
Stability was studied in the mouse liver microsome system—and human, not shown—(FIG. 13A) and directly in vivo, for HEI3090 molecule (FIG. 13B). These experiments highlighted that HEI3090 is found at a concentration of maximum 2.5 μM in the plasma of mice injected with HEI3090 (ip, 1.5 mg/kg in 10% DMSO).
(In general: Liver microsomes are vesicles of endoplasmic reticulum, rich in cytochrome P450 enzymes.)

Data set [2] in a line: Solubility (qualitative statement). The class given is physicochemical.
The subject of data set [3] is B16F10 melanoma cell line. The data set can be described thus: Large pore opening (Topro3) in B16F10 melanoma cell line. Type of data set: cell-based. Here is the method: Calcium channel activity (Fluo4AM probe) and large pore opening (Topro3 probe) were analysed by FACS. Unstimulated (NS) or cells treated with HEI2328 (50 μM) alone or with BzATP (500 μM) were analysed. (A) Representative dots plots. Numbers highlighted the percentage of positive cells.
A. Large pore opening. Dot plot of representative experiment. Numbers highlighted the percentage of positive cells. […] B. representative curve of XTT absorbance over the time. […] Mean±SEM are shown. ***, p<0.001; ****, p<0.0001 Mann-Whitney test.
4.1. […] To test this hypothesis, immunocompetent C57B6J (Envigo, Gannat France) mice were injected with the melanoma cell line B16-F10.
Of interest, potentiation of large pore opening correlated with increased-B16F10 cell death, as illustrated in FIG. 9. Cells treated during 1 h with BzATP and HEI3090 incorporated 3-fold more Topro3 than cells treated with BzATP only (FIG. 9A). Longer incubation increased cell death, since it was observed up to 80% of dead cells after 3 h treatment (FIG. 9B).

Data set [4] deals with B16F10 cells. The experiment in a line: Syngeneic tumor mice model, B16F10 subcutaneous. Type of data set: in vivo, C57BL/6 mice. Here is the method: 5×10^5 B16F10 cells were injected sub cutaneously in the right flank of C57BL/6 mice. Mice received HEI2328 (n=8, ip, 2.3 mg/kg in 10% DMSO/PBS) daily or placebo (n=8, 10% DMSO/PBS). A. incidence of tumor appearance B. Tumor size (mm2) and C. tumor weight at sacrifice day (J12). *, p<0.05 (Mann-Whitney test).
5×10^5 LLC or 5×10^5 B16F10 cells were injected sub cutaneously in the right flank of C57BL6 mice. Mice received HEI3090 (ip, 2.5 mg/kg in 10% DMSO/PBS) daily or placebo (10% DMSO/PBS). A,C. incidence of tumor appearance B,D. Tumor size (mm2) and tumor weight at sacrifice day (J12). E. HEI-treated tumors are more immunogenic. Expression of CMH1 (H2K^b/D^b) and PD-L1 by LLC (black) and B16F10 (grey) tumors is shown in dot plots. Numbers highlighted the percentage of tumor cells positive for H2K^b/D^b and PD-L1. […] F. CD-45 positive infiltrates is increased in LLC and B16F10 tumors. *, p<0.05; **, p<0.01; ***, p<0.001 Mann-Whitney test.
5×10^5 LLC or 5×10^5 B16F10 cells were injected sub cutaneously in the right flank of C57BL6 mice. Mice received HEI3090 (ip, 2.5 mg/kg in 10% DMSO/PBS) daily or placebo (10% DMSO/PBS). A. The quantity of immunosuppressive cells is reduced. Dot plot of representative experiment. Numbers highlighted the percentage of M-MDSC and PMN-MDSC. […] B. The quantity of effector T cells ([…], NK, CD4+) is increased.
Therefore the inventors tested this compound on a classical tumor mice model. 5×10^5 B16F10 cells (in 200 μl PBS) were injected subcutaneously in the right flank of C57B16 mice that received a daily intraperitoneal injection of 2.3 mg/kg HEI2328 (in PBS/10% DMSO) or placebo (PBS/10% DMSO) for 12 days. […] However, this encouraging result was not statistically significant.
4.2. By killing tumoral cells, HEI3090 may represent a new anti-tumor treatment. To test this hypothesis, immunocompetent C57B16J mice were subcutaneously injected with 5×10^5 B16F10 or 5×10^5 LLC (Lewis Lung Cancer) cells and treated daily with HEI3090 (ip, 2.5 mg/kg in 10% DMSO/PBS) or placebo (10% DMSO/PBS). […] In both tumor mice models, tumors weight in the treated group was reduced by 10-fold in the B16F10 model (8 mg vs 81 mg) and by 4-folds in the LLC model (80 mg vs 295 mg). Of interest, tumors from the HEI3090 treated group are more immunogenic than tumors from the placebo group.

In data set [5] the test system is P2RX7. The experiment in a line: Large pore opening in splenocytes from control or p2rx7 KO mice. Type of data set: cell-based, mouse. Conditions: HEI3090 50 μM, BzATP 500 μM. Here is the method: A. Splenocytes from control or p2rx7^exon2 KO mice were isolated and treated with HEI3090 (50 μM) in presence of absence of BzATP (500 μM). B. Large pore opening induced by increasing concentration of BzATP in presence or absence of HEI3090 in human P2RX7 expressing cells.
Indeed, with the same BzATP concentration, more cells are positive for Topro3 staining.

Entries after “also recorded” stand apart in the source; their conditions may differ.

Consider `O=C(NCc1ccc(Cl)cc1Cl)[C@@H]1CCC(=O)N1C(=O)Nc1ccc(Cl)c(Cl)c1` [HEI2328, (S)—N^2-(2,4-Dichlorobenzyl)-N^1-(3,4-dichlorophenyl)-5-oxopyrrolidine-1,2-dicarboxamide], for which the “stability in mouse liver microsomes” value in data set [1] is “stable”. In data set [2], the solubility entry is given as “poorly soluble”. In addition, the “increase of large pore opening (Topro3 positive cells)” value in data set [3] (HEI2328 50 μM added on BzATP (500 μM) treated cells) is on record as “more than 6 fold”. Besides, the “toxic effect of compound alone” value in data set [3] (absence of BzATP, 50 μM) was “no toxic effect”. For the same compound, the tumor incidence entry in data set [4] (HEI2328 2.3 mg/kg ip daily, 12 days) is reported as “delayed”. Further, in data set [4] (HEI2328 2.3 mg/kg ip daily, 12 days, not statistically significant), the “decrease of tumor growth” value is given as 20%.

With `O=C(NCc1ccc(Cl)cc1Cl)[C@@H]1CCC(=O)N1C(=O)Nc1ccc(Cl)nc1` [HEI3090, (S)—N^1-(6-Chloropyridin-3-yl)-N^2-(2,4-dichlorobenzyl)-5-oxopyrrolidine-1,2-dicarboxamide], the “stability in mouse liver microsomes” value in data set [1] is reported as “stable”. For the same compound, in data set [2], the solubility entry is listed as “more soluble”. Also, in data set [3] (1 h with BzATP and HEI3090), the “Topro3 incorporation vs cells treated with BzATP only” value was 3 fold. For the same compound, the “immunosuppressive cells (M-MDSC) in tumor infiltrates” value in data set [4] (HEI3090 ip 2.5 mg/kg daily) is on record as “less M-MDSC”. The compound further displayed a tumors weight in data set [4] (HEI3090 ip 2.5 mg/kg daily (placebo 81 mg)) of 8 mg. The “reduction of tumors weight” value in data set [4] (HEI3090 ip 2.5 mg/kg daily, vs placebo) worked out at 10 fold. For the same compound, the “Topro3 incorporation / effect in splenocytes from P2rx7 KO mice” value in data set [5] is “Topro3 incorporation is lost; also recorded: absence of effect”. Moreover, the “large pore opening in presence of BzATP” value in data set [5] (splenocytes from control mice) is “potentializes large pore opening in presence of BzATP”.
